Measurements taken from patent publication US12252517B2, “Hook fusion protein for regulating the cellular trafficking of a target protein” (INSTITUT CURIE, priority 2017, dated 2025).

B1: Ii Hook: previously described Invariant chain-based Hook: streptavidin fused to human invariant chain Ii (Boncompain et al. 2012) (protein)
chain: MHRRRSRSCREDQKPVMDDQRDLISNNEQLPMLGRRPGAPESKCSRGALYTGFSILVTLLLAGQATTAYFLYQQQGRLDKLTVTSQNLQLENLRMKLPKPPKPVSKMRMATPLLMQALPMGALPQGPMQNATKYGNMTEDHVMHLLQNADPLKVYPPLKGSFPENLRHLKNTMETIDWKVFESWMHHWLLFEMSRHSLEQKPTDAPPKESLELEDPSSGLGVTKQDLGPVPM
modifications: left off: large carriers

Assays:
Type in all cases: cell-based
[1] = tested on: scFv (CD19)-GFP-DAP10CD3-sSBP; test: Time course release using biotin (RUSH traffic) with soluble mini hook; conditions: HeLa cells, addition of biotin
Experimental: (§1) HeLa cells were cultivated at 37° C. and 5% of CO2 in Dulbecco's modified Eagle medium (DMEM) supplemented with 10%1-BS (Biowest), 1 mM sodium Pyruvate and […] of penicillin and streptomycin (Invitrogen). HeLa cells were transfected with the plasmid of interest using Calcium phosphate protocol in the presence of 25 mM of HEPES. Briefly, the plasmids coding the sequence of CAR based RUSH such as CD3-SBP-NKG2D (SEQ ID NO: 13), scFv(CD19)-GFP-DAP10CD3-sSBP (SEQ ID NO: 23), scFv(CD19)-GFP-DAP10-SBPdel (SEQ ID NO: 24), scFv(CD19)-mycDAP10-SBP (SEQ ID NO: 25) or BACE1-SBP-EGFP (SEQ ID NO: 26) (2.5 ug per 1 mL of final volume) were add to 1 mM tris-HCl pH 8.02 buffer followed by the addition of 10% of CaCl2 and incubated for 5 min (RT). Then this mix was add drop by drop into 2× concentrate HEBS buffer (160 mM NaCl, 1.5 mM Na2HPO4, 50 mM Hepes PH 7.04-7.05) while vortexing. The cells were incubated with this solution overnight at 37° C. and 5% of CO2.
(§2) The cells were seeded into a glass coverslips for fixed cell immunofluorescence and/or live imaging. In the next day the cells were transfected with the plasmids coding the construct of interest as previously described. For the steady state of the protein/construct, 40 μM final concentration of biotin was added (4 mM stock solution) just after addition of the transfection solution. […]

[2] = tested on: scFv (CD19)-GFP-DAP10-sSBP; test: as above; conditions: HeLa cells, addition of biotin
Experimental: as §1, §2

scFvCD19-Myc-DAP10-sSBP = test: Time course release using biotin (RUSH traffic, immunofluorescence) with Str-endoKKXX hook; conditions: HeLa cells, addition of biotin (40 μM)
Experimental: as §1, §2

[3] = tested on: BACE1-GFP-SBP (BACE1-RUSH); test: Retention, ALiS-1 release and wash-out retrieval from the cell surface; conditions: HeLa cells
Experimental: as §1
Biotin-mimetic molecule ALiS-1 was prepared in DMSO to 20 mM (stock solution) and the cells were treated with 40 μM final concentration to prevent the interaction between the reporter (target membrane protein) and the hook.
Cells coated in the coverslips were washed once in 1×PBS buffer, fixed in 3% of paraformaldehyde (PFA) (10-15 min, RT), washed (2×) and incubated with 50 mM of NH4Cl (5 min, RT) to quench free aldehydes. […]

| Molecule | release of reporter from the hook [1] | release of reporter from the hook [2] | release of reporter from the hook (scFvCD19-Myc-DAP10-sSBP) | localization of reporter ([3]; absence of releasing molecule (without biotin)) | retrieval of cell surface reporter back to the ER ([3]; washing-out ALiS-1 for 1 hour) |
| --- | --- | --- | --- | --- | --- |
| O=C(O)CCCC[C@@H]1SC[C@@H]2NC(=O)N[C@@H]21 [biotin] | leads to the release | leads to the release | released |  |  |
| B1 |  |  |  | retained in the ER | does not allow to capture cell surface localized BAC1-RUSH |
